The results in this text go back to US20050261332A1, “Sulfonamides and uses thereof” (priority 2004, published 2005).

By Ki is commonly meant a measure of affinity in units of concentration, obtained from inhibition or displacement. A higher Ki goes with weaker binding.

The target in this experiment is T1, GHS-R (Homo sapiens, UniProt Q92847).
T1 construct: expressed in transfected cells; host or cells: COS-7 cells
T1 sequence (Q92847 whole entry, species assumed): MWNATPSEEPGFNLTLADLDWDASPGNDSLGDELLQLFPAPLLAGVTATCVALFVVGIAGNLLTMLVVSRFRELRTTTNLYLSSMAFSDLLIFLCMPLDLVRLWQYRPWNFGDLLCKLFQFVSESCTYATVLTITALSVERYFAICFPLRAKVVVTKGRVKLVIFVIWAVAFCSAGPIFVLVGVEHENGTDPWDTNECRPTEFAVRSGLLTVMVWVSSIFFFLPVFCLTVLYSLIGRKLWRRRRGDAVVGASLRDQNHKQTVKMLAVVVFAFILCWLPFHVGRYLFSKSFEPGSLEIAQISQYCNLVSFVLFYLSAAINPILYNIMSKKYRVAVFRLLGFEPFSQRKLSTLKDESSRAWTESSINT
Put plainly: GHS-R competition binding assay (Ki of GHS-R antagonizing compounds). The protocol:
One exemplary binding assay is as follows: GHS-R expressing COS-7 cells cultured at a density of 1×10^5 cells per well so that binding is assayed in the range of about 5-8 % binding of the radioactive ligand. For example, the cells can express an endogenous nucleic acid encoding GHS-R or an exogenous nucleic acid encoding GHS-R. Cells transfected with an exogenous nucleic acid encoding GHS-R can be used, e.g., two days, after transfection. Competition binding experiments are performed for 3 hours at 4° C. using 25 pM of ^125I-ghrelin in 0.5 ml of 50 mM HEPES buffer, pH 7.4, supplemented with 1 mM CaCl2, 5 mM MgCl2, and 0.1% (w/v) bovine serum albumin, 40 mg/ml bacitracin. Non-specific binding can be determined as the binding in the presence of […] of unlabeled ghrelin. Cells are washed twice in 0.5 ml of ice-cold buffer and then lysed with 0.5-1 ml of lysis buffer (8 M Urea, 2% NP40 in 3 M acetic acid). After washing and lysis, the bound radioactivity is counted. Assays can be run in duplicate or triplicate, e.g., to provide statistical power.
Values of the dissociation and inhibition constants (Kd and Ki) can be estimated from competition binding experiments using the equation: Kd=IC50-L and Ki=IC50/(1+L/Kd), where L is the concentration of radioactive ligand. Bmax values can be estimated from competition binding experiments using the equation Bmax=B0 IC50/[ligand], where B0 is the specifically bound radioligand.
For `CN(C)CCCS(=O)(=O)N[C@H](COCc1ccccc1)C(=O)N1CCC2(CC1)CN(S(C)(=O)=O)c1ccccc12` [Compound 149, (R)-N-(3-(benzyloxy)-1-(1-(methylsulfonyl)spiro[indoline-3,4′-piperidine]-1′-yl)-1-oxopropan-2-yl)-3-(dimethylamino)propane-1-sulfonamide], the inhibitory constant (Ki) was in the range of 100 to 1000 nM.
`CCN(CC)CCS(=O)(=O)N[C@H](CCc1ccccc1)C(=O)c1ccc(-c2ccccc2CNC(=O)NCCO)cc1` [Compound 201, (R)-2-(diethylamino)-N-(1-(2′-((3-(2-hydroxyethyl)ureido)methyl)biphenyl-4-yl)-1-oxo-4-phenylbutan-2-yl)ethanesulfonamide] came in with an inhibitory constant (Ki) of less than 100 nM.
The result for `CN([C@H](COCc1ccccc1)C(=O)N1CCC2(CC1)CN(S(C)(=O)=O)c1ccccc12)S(=O)(=O)CCCCl` [Compound 157, (R)-N-(3-(benzyloxy)-1-(1-(methylsulfonyl)spiro[indoline-3,4′-piperidine]-1′-yl)-1-oxopropan-2-yl)-3-chloro-N-methylpropane-1-sulfonamide] reads 100 to 1000 nM.
With `CCN(CC)CCCS(=O)(=O)N[C@H](COCc1ccccc1)C(=O)c1ccc(-c2ccccc2COC(=O)NC)cc1` [Compound 219, (R)-Methyl-carbamic acid 4′-[(R)-3-benzyloxy-2-(3-diethylamino-propane-1-sulfonylamino)-propionyl]-biphenyl-2-ylmethyl ester] the figure was 100 to 1000 nM; with `CCN(CC)CCCS(=O)(=O)N[C@H](COCc1ccccc1)C(=O)c1ccc(-c2ccccc2C#N)cc1` [Compound 178, (R)-N-(3-(benzyloxy)-1-(2′-cyanobiphenyl-4-yl)-1-oxopropan-2-yl)-3-(diethylamino)propane-1-sulfonamide], 100 to 1000 nM.
With `CCN(CC)CCCS(=O)(=O)N[C@H](COCc1ccccc1)C(=O)NCc1ccc(-c2ccccc2CNC(C)=O)cc1` [Compound 216, (R)-N-[2′-(Acetylamino-methyl)-biphenyl-4-ylmethyl]-3-benzyloxy-2-(3-diethylamino-propane-1-sulfonylamino)-propionamide] the figure was greater than 1000 nM; with `CN1CCC(S(=O)(=O)N[C@H](COCc2ccccc2)C(=O)N2CCC3(CC2)CN(S(C)(=O)=O)c2ccccc23)CC1` [Compound 137, (R)-N-(3-(benzyloxy)-1-(1-(methylsulfonyl)spiro[indoline-3,4′-piperidine]-1′-yl)-1-oxopropan-2-yl)-1-methylpiperidine-4-sulfonamide], less than 100 nM; with `CCN(CC)CCCS(=O)(=O)N[C@@H](CCc1ccccc1)C(=O)N1CCC2(CC1)CN(S(C)(=O)=O)c1ccccc12` [Compound 211, (S)-3-(diethylamino)-N-(1-(1-(methylsulfonyl)spiro[indoline-3,4′-piperidine]-1′-yl)-1-oxo-4-phenylbutan-2-yl)propane-1-sulfonamide], less than 100 nM.
Take `CCN(CC)CCCS(=O)(=O)N[C@H](COCc1ccccc1)C(=O)N1CCC2(CC1)CN(S(C)(=O)=O)c1ccccc12` [Compound 148, (R)-N-(3-(benzyloxy)-1-(1-(methylsulfonyl)spiro[indoline-3,4′-piperidine]-1′-yl)-1-oxopropan-2-yl)-3-(diethylamino)propane-1-sulfonamide]: the inhibition constant Ki is 100 to 1000 nM.
With `CCN(CC)CCCS(=O)(=O)N[C@H](COCc1ccccc1)C(=O)NCc1ccc(-c2ccccc2C#N)cc1` [Compound 158, (R)-3-Benzyloxy-N-(2′-cyano-biphenyl-4-ylmethyl)-2-(3-diethylamino-propane-1-sulfonylamino)-propionamide] the figure was less than 100 nM.
On to `CCNC(=O)Nc1ccccc1-c1ccc(C(=O)[C@@H](COCc2ccccc2)NS(=O)(=O)CCCN(CC)CC)cc1` [Compound 175, (R)-N-(3-(benzyloxy)-1-(2′-(3-ethylureido)biphenyl-4-yl)-1-oxopropan-2-yl)-3-(diethylamino)propane-1-sulfonamide], for which the Ki is 100 to 1000 nM.
The result for `CCN(CC)CCCS(=O)(=O)N[C@H](COCc1ccccc1)C(=O)NCc1ccc(-c2ccccc2C(N)=O)cc1` [Compound 154, (R)-4′-{[3-Benzyloxy-2-(3-diethylamino-propane-1-sulfonylamino)-propionylamino]-methyl}-biphenyl-2-carboxylic acid amide] reads 100 to 1000 nM; that for `CN1CCN(CCS(=O)(=O)N[C@H](COCc2ccccc2)C(=O)N2CCC3(CC2)CN(S(C)(=O)=O)c2ccccc23)CC1` [Compound 129, (R)-N-(3-(benzyloxy)-1-(1-(methylsulfonyl)spiro[indoline-3,4′-piperidine]-1′-yl)-1-oxopropan-2-yl)-2-(4-methylpiperazin-1-yl)ethanesulfonamide], greater than 1000 nM.
Turning to `CCN(CC)CCCS(=O)(=O)N[C@H](COCc1ccccc1)C(=O)c1ccc(-c2ccccc2NC(=O)OC(C)(C)C)cc1` [Compound 166, (R)-{4′-[3-Benzyloxy-2-(3-diethylamino-propane-1-sulfonylamino)-propionyl]-biphenyl-2-yl}-carbamic acid tert-butyl ester], the inhibition constant (Ki) was greater than 1000 nM.
With `CCN(CC)CCCS(=O)(=O)N[C@H](CCc1ccccc1)C(=O)c1ccc(-c2ccccc2CCNC(=O)NC)cc1` [Compound 185, (R)-3-(diethylamino)-N-(1-(2′-(2-(3-methylureido)ethyl)biphenyl-4-yl)-1-oxo-4-phenylbutan-2-yl)propane-1-sulfonamide] the figure was less than 100 nM.
`CCNC(=O)NCc1ccccc1-c1ccc(C(=O)[C@@H](CCc2ccccc2)NS(=O)(=O)CCN(CC)CC)cc1` [Compound 205, (R)-2-(diethylamino)-N-(1-(2′-((3-ethylureido)methyl)biphenyl-4-yl)-1-oxo-4-phenylbutan-2-yl)ethanesulfonamide] yielded an inhibition constant (Ki) of less than 100 nM.
`CCN(CC)CCS(=O)(=O)N[C@H](COCc1ccccc1)C(=O)N1CCC2(CC1)CN(S(C)(=O)=O)c1ccccc12` [Compound 132, (R)-N-(3-(benzyloxy)-1-(1-(methylsulfonyl)spiro[indoline-3,4′-piperidine]-1′-yl)-1-oxopropan-2-yl)-2-(diethylamino)ethanesulfonamide]: the inhibitory constant (Ki) was less than 100 nM.
In the case of `CCN(CC)CCCS(=O)(=O)N[C@H](CCc1ccccc1)C(=O)NCc1ccc(-c2ccccc2CNC(=O)NCCO)cc1` [Compound 188, (R)-2-(3-(diethylamino)propylsulfonamido)-N-((2′-((3-(2-hydroxyethyl)ureido)methyl)biphenyl-4-yl)methyl)-4-phenylbutanamide], the Ki was less than 100 nM.
The molecule `CCN(CC)CCS(=O)(=O)N[C@H](CCc1ccccc1)C(=O)c1ccc(-c2ccccc2COC(=O)NC)cc1` [Compound 215, (R)-(4′-(2-(2-(diethylamino)ethylsulfonamido)-4-phenylbutanoyl)biphenyl-2-yl)methyl methylcarbamate] displayed a Ki greater than 1000 nM.
With `CCN(CC)CCCS(=O)(=O)N[C@H](CCc1ccccc1)C(=O)c1ccc(-c2ccccc2C(=O)NC)cc1` [Compound 186, (R)-4′-(2-(3-(diethylamino)propylsulfonamido)-4-phenylbutanoyl)-N-methylbiphenyl-2-carboxamide] the figure was 100 to 1000 nM.
For the molecule `CCNC(=O)Nc1ccccc1-c1ccc(C(=O)[C@@H](CCc2ccccc2)NS(=O)(=O)CCCN(CC)CC)cc1` [Compound 172, (R)-3-(diethylamino)-N-(1-(2′-(3-ethylureido)biphenyl-4-yl)-1-oxo-4-phenylbutan-2-yl)propane-1-sulfonamide], the Ki lay within 100 to 1000 nM.
Take `CCNC(=O)NCc1ccccc1-c1ccc(CNC(=O)[C@@H](CCc2ccccc2)NS(=O)(=O)CCCN(CC)CC)cc1` [Compound 193, (R)-2-(3-(diethylamino)propylsulfonamido)-N-((2′-((3-ethylureido)methyl)biphenyl-4-yl)methyl)-4-phenylbutanamide]: the Ki was less than 100 nM.
`CCN(CC)CCCS(=O)(=O)N[C@H](COCc1ccccc1)C(=O)NCc1ccc(-c2ccccc2-c2nn[nH]n2)cc1` [Compound 156, (R)-3-Benzyloxy-2-(3-diethylamino-propane-1-sulfonylamino)-N-[2′-(2H-tetrazol-5-yl)-biphenyl-4-ylmethyl]-propionamide] came in with an inhibitory constant (Ki) of 100 to 1000 nM.
In the case of `CCN(CC)CCCS(=O)(=O)N[C@@H](COCc1ccccc1)C(=O)N1CCC2(CC1)CN(S(C)(=O)=O)c1ccccc12` [Compound 210, (S)-N-(3-(benzyloxy)-1-(1-(methylsulfonyl)spiro[indoline-3,4′-piperidine]-1′-yl)-1-oxopropan-2-yl)-3-(diethylamino)propane-1-sulfonamide], the inhibition constant Ki is 100 to 1000 nM.
The result for `CCN(CC)CCCS(=O)(=O)N[C@H](COCc1ccccc1)C(=O)NCc1ccc(-c2ccccc2CCNC(=O)NC)cc1` [Compound 217, (R)-3-Benzyloxy-2-(3-diethylamino-propane-1-sulfonylamino)-N-{2′-[2-(3-methyl-ureido)-ethyl]-biphenyl-4-ylmethyl}-propionamide] reads 100 to 1000 nM.
Molecule `CCN(CC)CCCS(=O)(=O)N[C@H](CCc1ccccc1)C(=O)c1ccc(-c2ccccc2CNC(C)=O)cc1` [Compound 192, (R)-N-((4′-(2-(3-(diethylamino)propylsulfonamido)-4-phenylbutanoyl)biphenyl-2-yl)methyl)acetamide] came in with a Ki of less than 100 nM.
